# Results: PubChem BioAssay AID449762 (Southern Research Specialized Biocontainment Screening …, 2010)
# Records with an inconclusive call do not appear.
# Test system: M. tuberculosis H37Rv growth inhibition, 7H9 media
# Assay: M. tuberculosis growth inhibition, HTS (AID 449762);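 also: bacterial growth assessed after seven days of incubation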
# Conditions: for IC90: measured here: IC90 growth inhibition
Structure (SMILES),IC50,IC90
Cc1ccc(-n2cccc2C(=S)N=P(N(C)C)(N(C)C)N(C)C)cc1,18.4 µM,25.5 µM
C=CCNc1oc(-c2ccc(-c3ccccc3)cc2)nc1C#N,12.2 µM,13.7 µM
Nc1ccc2c(c1)oc1ccccc12,–,> 100 µM
CCOC(=O)C(C)Sc1ncnc2c1nnn2-c1ccc(F)cc1 (configuration not stated),1.19 µM,7.38 µM
COc1ccccc1OCCN1CSC(=S)N(C)C1,6.34 µM,15.3 µM
CCCCCCCNC(=O)c1ccc(N2CCC3(CC2)OCCO3)c([N+](=O)[O-])c1,37.9 µM,47.2 µM
CCCCCCCCNC(C)C(O)c1ccc(SC(C)C)cc1 (configuration not stated),22.5 µM,31.8 µM
Cc1ccc2[nH]c3c(c2c1)CN(C(=O)CN1CCN(c2ccccn2)CC1)CC3,–,> 100 µM
CCOC(=O)CN[C@H]1CCC2C3CC=C4C[C@@H](O)CC[C@]4(C)C3CC[C@@]21C (some centres not stated),1.41 µM,8.37 µM
CCCCCCCCNC(=O)CCNC(=O)c1ccc(C(C)(C)C)cc1,35.3 µM,44.6 µM
COc1ccc(-c2ccc(-c3noc(C(C)C)n3)c(OC)n2)cc1,10.7 µM,26.7 µM
Cc1nc(N2CCN(c3ccccn3)CC2)c2c(C)c(C(=O)N3CCN(c4ccc(F)cc4)CC3)sc2n1,11.1 µM,12.5 µM
CC1(C)Cc2ccccc2C2=NNC(=O)C2=N1,11.2 µM,21 µM
CN1CCN(c2ccc(S(=O)(=O)N3CCCCC3)cc2NC(=O)/C=C/c2ccc(Cl)c([N+](=O)[O-])c2)CC1,30.4 µM,38.7 µM
O=S1(=O)CCC(N=Cc2ccc(-c3ccc(Cl)cc3)o2)C1 (configuration not stated),54.8 µM,> 100 µM
Cc1ccc(C(=O)c2cc(C)sc2NC(=O)CN2CCN(C(=O)c3ccco3)CC2)cc1,3.81 µM,12 µM
c1ccc2nc(-c3ccc(-n4ccnc4)cc3)ccc2c1,23.5 µM,25.9 µM
O=C(CCl)N1CCN2C(=O)c3ccccc3C12c1ccc(Cl)cc1 (configuration not stated),5.42 µM,7.84 µM
COC(=O)C1C(O)C(C)C(O)C(C)/C=C\C=C(/C)C(=O)Nc2c(C)c(OC(C)=O)c3c(c2O)C(=O)C(C)=C2OCOC(=C23)/C(C)=C/C(C)(O)C(O)C(C)C1O (configuration not stated),< 0.2 µM,< 0.2 µM
O=C(N/N=C/c1ccc(Br)s1)c1cccs1,24.3 µM,> 100 µM
O=C(OCCN1C(=O)c2ccccc2C1=O)c1cc2ccccc2o1,12.2 µM,> 25 µM
c1ccc2c(C3=NNC(=NC4CCCCC4)SC3)c[nH]c2c1,42.7 µM,47.2 µM

Structure (SMILES),IC50,IC90
C/C(=N\NC(=O)c1ccc(O)cc1)c1ccc2c(c1)Nc1ccccc1S2,24.8 µM,62.8 µM
COc1ccc(N2CCN(C(=O)c3cc4c(C)nc5ccccc5c4o3)CC2)cc1,18.5 µM,32.5 µM
CCOC(=O)c1sc2nc(C)nc(SC(C)C(=O)N(C)c3ccccc3)c2c1C (configuration not stated),35.1 µM,46.5 µM
N/C(=N\NC(=O)c1sccc1OCc1ccc(Cl)cc1Cl)c1ccccn1,15.7 µM,46 µM
C(=N\Nc1ncnc2sc3c(c12)CCC3)/c1cccs1,5.84 µM,16.8 µM
CSCCC1NC(=O)N(CC(=O)N2N=C(c3ccc(Cl)cc3)CC2c2ccco2)C1=O (configuration not stated),10.5 µM,16 µM
Oc1ccccc1Nc1nc(NCc2ccccc2)c2ccccc2n1,16.1 µM,21.1 µM
COc1ccc(N2C(=O)C(Cl)=C(Nc3ccccc3O)C2=O)cc1,14.2 µM,25.7 µM
COc1ccc(-c2cc3nc(CCl)[nH]c(=O)c3s2)cc1,0.88 µM,14.5 µM
O=C(CSC1=NC(=O)C(c2ccccc2)C(=O)N1)Nc1ccccc1Cl (configuration not stated),1.86 µM,6.58 µM
CC(=O)c1ccc(-n2cc(-c3ccc(C(C)(C)C)cc3)[n+]3c2SCCC3)cc1,4.34 µM,29.5 µM
c1ccc(CCNc2ncnc3c2cnn3-c2ccccc2)cc1,22.1 µM,> 50 µM
Nc1nc(Cl)cc(N2CCC(c3cc(-c4ccc(Cl)cc4Cl)n[nH]3)CC2)n1,22.9 µM,25.9 µM
Cc1ccc(/C=C2\C(=O)Nc3ccccc32)o1,3.54 µM,6.03 µM
O=C(COc1cc(O)c2c(=O)c3ccccc3oc2c1)OCc1ccccc1,–,> 100 µM
O=C(Cc1ccc(Nc2nc3ccc(Br)cc3[nH]2)cc1)NCCc1cccs1,23.5 µM,31.2 µM
C[n+]1c(-c2ccccc2)c2cc(N)ccc2c2ccc(N)cc21,7.95 µM,10.2 µM
COc1ccccc1C1c2ccc3ccccc3c2Oc2ncn(CCN(C)C)c(=N)c21 (configuration not stated),22.3 µM,24.9 µM
Cc1c(Cl)cccc1NC(=O)CN1CCC(C(O)(c2ccccc2)c2ccccc2)CC1,36.1 µM,> 100 µM
CCCCCC(=O)N/N=C(\C)c1ccccn1,13.9 µM,33.1 µM
O=C(COc1cccc(Oc2ccccc2)c1)Nc1ncccn1,37.7 µM,> 100 µM
Cc1[nH]n(-c2ccccc2)c(=O)c1C(C[N+](=O)[O-])c1ccccc1Cl (configuration not stated),6.99 µM,14.3 µM

Structure (SMILES),IC50,IC90
O=[N+]([O-])c1ccc(Sc2cc[n+]([O-])c3ccccc23)c([N+](=O)[O-])c1,16.1 µM,24.3 µM
CC1(c2ccc(Cl)c(Cl)c2)NC(=S)N2C1NC(=S)N2c1ccccc1 (configuration not stated),–,> 100 µM
O=C1N/C(=N\N=C\c2ccccn2)SC1Cc1cccc(SC(F)F)c1 (configuration not stated),73.1 µM,> 100 µM
CC(=O)C1=C(C)NC(SCC(=O)c2ccc(F)cc2)=C(C#N)C1c1ccco1 (configuration not stated),46.1 µM,51 µM
CCn1c(C)c(C)c2cc(C(=O)Nc3cccc(Cl)c3)ccc21,35 µM,> 100 µM
CC(=O)c1ccc(Sc2nnnn2-c2ccccc2)c([N+](=O)[O-])c1,4.48 µM,13.3 µM
Nc1c2c(nc3sc4c(c13)CCCCC4)CCCC2,4.56 µM,13.8 µM
CCOc1ccc(-c2cc(C(=O)NCCCn3ccnc3)c3cc(Br)ccc3n2)cc1,24.1 µM,27.4 µM
CNc1nc(-c2ccccn2)nnc1-c1ccccc1,12.1 µM,19 µM
Cc1cc(Br)ccc1NC(=O)c1cnc(N2CCN(c3ccccn3)CC2)c2ccccc12,1.24 µM,3.49 µM
CCOC(=O)c1ccc(-c2c(-c3ccc4c(c3)OCO4)noc2C)cc1F,33.3 µM,54 µM
O=C(NCc1ccc2c(c1)OCO2)c1c(O)nc2sccn2c1=O,40 µM,> 100 µM
CCn1c(SCC(=O)OC2CCCCC2)nc2ccccc2c1=O,21.7 µM,37.7 µM
CC1CCC(C(C)C)C(OC(=O)Cn2c(-c3ccc(F)cc3)[n+](C)c3ccccc32)C1 (configuration not stated),9.08 µM,13 µM
Cc1ccc2c(c1)Oc1ccc(NC(=O)CCl)cc1C(=O)N2,7.88 µM,> 100 µM
Cn1ccnc1C(=O)C1CCCN(Cc2cn[nH]c2-c2ccc(-c3ccccc3)cc2)C1 (configuration not stated),76 µM,91.7 µM
Cc1nc2scc(-c3cccs3)c2c(=O)n1-n1cccc1,56.1 µM,> 100 µM
O=C(NC(C(=O)N/N=C/c1cccc2ccccc12)c1n[nH]c(=O)c2ccccc12)c1ccccc1 (configuration not stated),53.2 µM,> 100 µM
CCCCOc1ccc(C(=O)Oc2ccc(C)nc2)cc1,13.8 µM,72.3 µM
CCOc1ccc(NC(=S)Nc2ccc(C)c([N+](=O)[O-])c2)cc1,45 µM,> 100 µM
CCOc1ccc(NC(=S)Nc2cc(-c3ccccc3)[nH]n2)cc1,92.6 µM,> 100 µM
CN(C(=O)c1cccc(Nc2ccc(-c3ccc4c(c3)OCCO4)nn2)c1)C1CCCCC1,50.8 µM,> 100 µM

Structure (SMILES),IC50,IC90
O=C(c1cc2ccccc2o1)N1CCN(S(=O)(=O)c2ccc(Cl)s2)CC1,4.01 µM,13.1 µM
CCOC(=O)c1ccc(N=c2sc(C(=O)OC)cc(=O)n2CCCN2CCOCC2)cc1,4.52 µM,12 µM
COc1cc(C#Cc2c(-c3cncn3C)n(C)c3ccc(-c4cnc(N5CCOCC5)nc4)cc23)cc(OC)c1,45.8 µM,51.7 µM
CC1(C)CC(=O)C2=C(C1)OC(N)=C([N+](=O)[O-])C2c1ccc(C#N)s1 (configuration not stated),62.2 µM,> 100 µM
COc1ccc(N/C=C/C(=O)c2sc(-c3ccccc3)nc2C)cc1,30.8 µM,55.4 µM
O=C(N/N=C(\c1ccccc1)c1ccccn1)c1ccccc1Cl,3.65 µM,22.1 µM
O=C(C[n+]1ccc(C(=O)c2ccccc2)cc1)Nc1ccc(C(F)(F)F)cc1,21.5 µM,23.7 µM
Cc1ccc(-n2nnc3c(=O)oc4ccccc4c32)cc1,< 0.2 µM,19.9 µM
c1ccc(CSc2ccc(-c3ccccn3)nn2)cc1,23.4 µM,26.9 µM
Cc1ccc(-c2cc(-c3ccccc3C)[nH]n2)c(O)c1,22.2 µM,> 100 µM
O=C(Oc1ccccc1)c1ccccc1OS(=O)(=O)c1ccccc1,1.1 µM,14.3 µM
CCc1ccc(-c2nn(-c3ccccc3)cc2CSC(=N)N)cc1,17.5 µM,22.4 µM
CCc1ccc(CCOc2ccc(CC3SC(=O)NC3=O)cc2)nc1 (configuration not stated),23.3 µM,> 25 µM
Nc1ccc(-c2nc3nc(N)nc(N)c3nc2-c2ccc(N)cc2)cc1,43 µM,57.5 µM
CCOC(=O)c1c(NC(=O)C(NCCN(C)C)c2ccccc2)sc2c1CCCC2 (configuration not stated),4.75 µM,10.1 µM
CCC(C)Nc1ccc(NC(C)CC)cc1 (configuration not stated),1.12 µM,1.69 µM
O=[N+]([O-])c1ccc(COc2ccc(-c3[nH]ncc3-c3ccc(Cl)cc3)c(O)c2)cc1,67.1 µM,> 100 µM
CCC1=C(OC(=O)N(CC)CC)N2C(=O)OC(=NCCc3c[nH]c4ccccc34)[C@]2(Cc2ccccc2)[C@H]2C1=CC[C@H]1C(=O)NC(=O)[C@H]12,30.7 µM,44.8 µM
O=C(NNC(=O)C12CC3CC(CC(C3)C1)C2)c1ccccn1,5.36 µM,23.5 µM
CCOC(=O)c1c(/N=C/N(C)C)sc(/C=N/Nc2ccccc2)c1-c1ccccc1Cl,81.8 µM,> 100 µM
O=C(C1=C[C@@H](c2csc3ccccc23)C[C@@H](OCCCCO)O1)N1CCN(Cc2ccc3c(c2)OCO3)CC1,28.5 µM,47.8 µM
CCCn1c(N2CCN(Cc3ccc(Cl)cc3)CC2)nc2ccccc21,11.3 µM,23.5 µM
